Assay results from article PMC12036814 (Angewandte Chemie (International Ed. in English), 2025).

Assays:
PTGR2 = target: T1, PTGR2 (Homo sapiens, UniProt Q8N8N7); assay: PTGR2 activity assay (LC-MS/MS); type: biochemical; details: tested up to 250 μM, data not shown
T1 construct: purchased Antikoerper-online ABIN1098255
Procedure: AIFM1 expression & purification
Recombinant AIFM1 was expressed in a Rosetta2 E. coli strain. Bacterial growth was conducted in LB media supplemented with riboflavin and FAD shaking at 37°C and 180 rpm. Expression was induced with 1.0 mM IPTG and incubated for further 16 h before harvesting. Cells were harvested on ice in PBS and cell pellets stored at -20°C. Cells were lysed by French press and the 6xHis-tagged constructs were purified by Immobilized Metal Affinity Chromatography using Ni Sepharose (6 Fast Flow, GE). The centrifugation-cleared bacterial lysate was bound to beads in binding buffer (200 mM NaCl, 20 mM Tris/Cl pH = 7.4). […]
For gel-based fluorescence labelling of recombinant AIFM1, 1.7 µM recombinant protein was spiked - in to PBS or PBS -diluted HEK293 cell lysate ( 100 µg per reaction sample). […]
Click Master-mix (8 µL, 100 µM TAMRA-azide, Baseclick, Neuried, Germany, Cat# BCFA-008-10, 500 µM BTTAA ligand, Jena Bioscience, Jena, Germany, CLK -067, 1 mM CuSO4) was added and the CuAAC reaction started by addition of 2 µL of aq. sodium ascorbate (c end= 2 mM). […] Fluorescence scanning was performed using a Las-3000 fluorescence darkbox (Fujifilm, Minato, Japan) with a Fujinon VRF 43LMD Lens, 605DF40 filter and 520 nm EPI excitation wavelength and loading controls were developed with Coomassie stain afterwards. […]

[1] = system: IDH2 mRNA in PDL-hTERT cells; assay: Quantitative PCR of IDH2 mRNA; type: cell-based, human; parameters: dose or concentration left out as unconfirmed; details: […] µM, GAPDH housekeeper
NUDT1 = NUDT1 (Homo sapiens, UniProt P36639); assay: NUDT1 in vitro activity assay (malachite green); type: biochemical; parameters: Full length NUDT1 gene synthesis; N-terminal His tag with thrombin site from pET28a(+) (NdeI/XhoI) (N, cleaved yes); made in house; host or cells: E. coli BL21 (DE3); details: 100 μM

T1 sequence (Q8N8N7 whole entry): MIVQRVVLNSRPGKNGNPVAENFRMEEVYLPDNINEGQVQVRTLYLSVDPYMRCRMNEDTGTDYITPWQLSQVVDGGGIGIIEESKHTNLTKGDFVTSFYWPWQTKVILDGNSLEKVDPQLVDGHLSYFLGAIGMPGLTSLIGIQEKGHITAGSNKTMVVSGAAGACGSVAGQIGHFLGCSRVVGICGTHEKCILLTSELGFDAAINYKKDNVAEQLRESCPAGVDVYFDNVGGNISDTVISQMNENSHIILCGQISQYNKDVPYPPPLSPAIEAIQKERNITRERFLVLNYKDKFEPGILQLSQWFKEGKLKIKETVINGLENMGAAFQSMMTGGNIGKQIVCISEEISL

O=C(O)c1cn(C2CC2)c2cc(N3CCNCC3)c(F)cc2c1=O [Ciprofloxacin]
PTGR2 activity (PTGR2): not significantly affected
IDH2 mRNA levels versus vehicle control [1]: not significantly changed
NUDT1 in vitro activity, inhibition (NUDT1): significant partial inhibition
